Test results reported in patent publication EP1561465A2, “Methods of use of fluoroquinolone compounds against bacteria” (LG Life Sciences, Ltd., priority 1999, dated 2001).
Values after ≈ are worked out from the molar mass of the structure shown. Like-named read-outs stand apart in the source and are kept apart here.

Legend:
Haemophilus influenzae = assay: MIC by NCCLS reference broth microdilution, 450 respiratory tract pathogens; type: cell-based; conditions: Haemophilus influenzae; for MIC90: read-out: MIC90
Moraxella catarrhalis = assay: as above; type: cell-based
Staphylococcus aureus = assay: as above; type: cell-based
Klebsiella pneumoniae = assay: as above; type: cell-based; conditions: for MIC50 / MIC90: Klebsiella pneumoniae
Enterococcus faecalis = assay: MIC by agar macrodilution (NCCLS), 373 Gram positive isolates, Athens 1998; type: cell-based; conditions: for MIC50: read-out: MIC50
Campylobacter jejuni = assay: MIC by agar dilution (NCCLS M7-A4), 288 enteropathogenic isolates, gemifloxacin and 15 other antimicrobials; conditions: for MIC: Campylobacter jejuni
Streptococcus pneumoniae = assay: MIC by agar dilution (NCCLS), 411 isolates Buenos Aires 1998-99; type: cell-based; conditions: S. pneumoniae
[1] = Haemophilus influenzae (n = 100)
[2] = β-lactamase positive and erythromycin resistant (n = 10)
[3] = extended spectrum β-lactamase negative (n = 30)
[4] = extended spectrum β-lactamase positive (n = 20)
[5] = number of isolates at MIC […], n = 81
[6] = number of isolates with MIC […], 14 isolates

COc1c(N2C[C@@H]3CCCN[C@@H]3C2)c(F)cc2c(=O)c(C(=O)O)cn(C3CC3)c12 [Moxifloxacin, moxifloxacin]
MIC (Haemophilus influenzae; [1]): 0.0075 to 0.12 µg/mL (≈ 0.0187 to 0.299 µM)
MIC50 (Haemophilus influenzae; [1]): 0.03 µg/mL (≈ 0.0747 µM)
MIC90 (Haemophilus influenzae; [1]): 0.06 µg/mL (≈ 0.149 µM)
MIC (Haemophilus influenzae; β-lactamase negative (n = 80)): 0.0075 to 0.06 µg/mL (≈ 0.0187 to 0.149 µM)
MIC50 (Haemophilus influenzae; β-lactamase negative (n = 80)): 0.03 µg/mL (≈ 0.0747 µM)
MIC90 (Haemophilus influenzae; β-lactamase negative (n = 80)): 0.06 µg/mL (≈ 0.149 µM)
MIC (Haemophilus influenzae; β-lactamase positive (n = 20)): 0.0075 to 0.06 µg/mL (≈ 0.0187 to 0.149 µM)
MIC50 (Haemophilus influenzae; β-lactamase positive (n = 20)): 0.015 µg/mL (≈ 0.0374 µM)
MIC90 (Haemophilus influenzae; β-lactamase positive (n = 20)): 0.015 µg/mL (≈ 0.0374 µM)
MIC (Moraxella catarrhalis; Moraxella catarrhalis (n = 50)): 0.00375 to 0.12 µg/mL (≈ 0.00934 to 0.299 µM)
MIC50 (Moraxella catarrhalis; Moraxella catarrhalis (n = 50)): 0.06 µg/mL (≈ 0.149 µM)
MIC90 (Moraxella catarrhalis; Moraxella catarrhalis (n = 50)): 0.06 µg/mL (≈ 0.149 µM)
MIC (Moraxella catarrhalis; β-lactamase negative (n = 13)): 0.00375 to 0.12 µg/mL (≈ 0.00934 to 0.299 µM)
MIC50 (Moraxella catarrhalis; β-lactamase negative (n = 13)): 0.015 µg/mL (≈ 0.0374 µM)
MIC90 (Moraxella catarrhalis; β-lactamase negative (n = 13)): 0.06 µg/mL (≈ 0.149 µM)
MIC (Moraxella catarrhalis; β-lactamase positive (n = 37)): 0.00375 to 0.12 µg/mL (≈ 0.00934 to 0.299 µM)
MIC50 (Moraxella catarrhalis; β-lactamase positive (n = 37)): 0.03 µg/mL (≈ 0.0747 µM)
MIC90 (Moraxella catarrhalis; β-lactamase positive (n = 37)): 0.06 µg/mL (≈ 0.149 µM)
MIC (Staphylococcus aureus; Staphylococcus aureus (n = 50)): 0.015 to 0.5 µg/mL (≈ 0.0374 to 1.25 µM)
MIC50 (Staphylococcus aureus; Staphylococcus aureus (n = 50)): 0.25 µg/mL (≈ 0.623 µM)
MIC90 (Staphylococcus aureus; Staphylococcus aureus (n = 50)): 0.5 µg/mL (≈ 1.25 µM)
MIC (Staphylococcus aureus; β-lactamase negative (n = 20)): 0.06 to 0.5 µg/mL (≈ 0.149 to 1.25 µM)
MIC50 (Staphylococcus aureus; β-lactamase negative (n = 20)): 0.25 µg/mL (≈ 0.623 µM)
MIC90 (Staphylococcus aureus; β-lactamase negative (n = 20)): 0.5 µg/mL (≈ 1.25 µM)
MIC (Staphylococcus aureus; β-lactamase positive (n = 20)): 0.12 to 0.5 µg/mL (≈ 0.299 to 1.25 µM)
MIC50 (Staphylococcus aureus; β-lactamase positive (n = 20)): 0.25 µg/mL (≈ 0.623 µM)
MIC90 (Staphylococcus aureus; β-lactamase positive (n = 20)): 0.5 µg/mL (≈ 1.25 µM)
MIC (Staphylococcus aureus; [2]): 0.12 to 0.5 µg/mL (≈ 0.299 to 1.25 µM)
MIC50 (Staphylococcus aureus; [2]): 0.25 µg/mL (≈ 0.623 µM)
MIC90 (Staphylococcus aureus; [2]): 0.5 µg/mL (≈ 1.25 µM)
MIC Range (Klebsiella pneumoniae; Klebsiella pneumoniae (n = 50)): 0.015 to 1 µg/mL
MIC50 (Klebsiella pneumoniae; Klebsiella pneumoniae (n = 50)): 0.06 µg/mL (≈ 0.149 µM)
MIC90 (Klebsiella pneumoniae; Klebsiella pneumoniae (n = 50)): 0.5 µg/mL (≈ 1.25 µM)
MIC50 (Klebsiella pneumoniae; [3]): 0.06 µg/mL (≈ 0.149 µM)
MIC90 (Klebsiella pneumoniae; [3]): 0.25 µg/mL (≈ 0.623 µM)
MIC50 (Klebsiella pneumoniae; [4]): 0.5 µg/mL (≈ 1.25 µM)
MIC90 (Klebsiella pneumoniae; [4]): 1 µg/mL (≈ 2.49 µM)
MIC Range (Klebsiella pneumoniae; [3]): 0.015 to 0.5 µg/mL
MIC Range (Klebsiella pneumoniae; [4]): 0.06 to 1 µg/mL

CC[C@H]1OC(=O)[C@H](C)[C@@H](O[C@H]2C[C@@](C)(OC)[C@@H](O)[C@H](C)O2)[C@H](C)[C@@H](O[C@@H]2O[C@H](C)C[C@H](N(C)C)[C@H]2O)[C@](C)(O)C[C@@H](C)C(=O)[C@H](C)[C@@H](O)[C@]1(C)O [erythromycin]
MIC50 (Enterococcus faecalis; Enterococcus faecalis, continuation of the preceding table (title not shown), 14 isolates): ≥ 32 µg/mL
MIC50 (Enterococcus faecalis; Enterococcus faecalis, n = 81 isolates): 8 µg/mL (≈ 10.9 µM)
MIC90 (Enterococcus faecalis; Enterococcus faecalis, n = 81 isolates, read-out: MIC90): ≥ 32 µg/mL
MIC90 (Enterococcus faecalis; continuation of the preceding table (title not shown), 14 isolates): ≥32 µg/mL
MIC distribution (µg/ml) 0.03 (Enterococcus faecalis; number of isolates at MIC 0.03 µg/ml, n = 81): 0
MIC distribution (µg/ml) 0.06 (Enterococcus faecalis; number of isolates at MIC 0.06 µg/ml, n = 81): 0
MIC distribution (µg/ml) 0.5 (Enterococcus faecalis; number of isolates at MIC 0.5 µg/ml, n = 81): 1
MIC distribution (µg/ml) 1 (Enterococcus faecalis; number of isolates at MIC 1 µg/ml, n = 81): 2
MIC distribution (µg/ml) 2 (Enterococcus faecalis; number of isolates at MIC 2 µg/ml, n = 81): 12
MIC distribution (µg/ml) 4 (Enterococcus faecalis; number of isolates at MIC 4 µg/ml, n = 81): 16
MIC distribution (µg/ml) 8 (Enterococcus faecalis; number of isolates at MIC 8 µg/ml, n = 81): 4
MIC distribution (µg/ml) 16 (Enterococcus faecalis; number of isolates at MIC 16 µg/ml, n = 81): 1
MIC distribution (µg/ml) 0.125 (Enterococcus faecalis; [5]): 1
MIC distribution (µg/ml) 0.25 (Enterococcus faecalis; [5]): 1
MIC distribution (µg/ml) ≤0.015 (Enterococcus faecalis; number of isolates at MIC ≤[…], n = 81): 0
MIC distribution (µg/ml) ≥32 (Enterococcus faecalis; number of isolates at MIC ≥32 µg/ml, n = 81): 39
MIC distribution (µg/ml) 0.03 (Enterococcus faecalis; number of isolates with MIC […] µg/ml, 14 isolates): 0
MIC distribution (µg/ml) 0.06 (Enterococcus faecalis; number of isolates with MIC […] µg/ml, 14 isolates): 0
MIC distribution (µg/ml) 0.5 (Enterococcus faecalis; number of isolates with MIC […] µg/ml, 14 isolates): 0
MIC distribution (µg/ml) 1 (Enterococcus faecalis; number of isolates with MIC 1 µg/ml, 14 isolates): 0
MIC distribution (µg/ml) 2 (Enterococcus faecalis; number of isolates with MIC 2 µg/ml, 14 isolates): 2
MIC distribution (µg/ml) 4 (Enterococcus faecalis; number of isolates with MIC 4 µg/ml, 14 isolates): 2
MIC distribution (µg/ml) 8 (Enterococcus faecalis; number of isolates with MIC 8 µg/ml, 14 isolates): 1
MIC distribution (µg/ml) 16 (Enterococcus faecalis; number of isolates with MIC […] µg/ml, 14 isolates): 0
MIC distribution (µg/ml) 0.125 (Enterococcus faecalis; [6]): 0
MIC distribution (µg/ml) 0.25 (Enterococcus faecalis; [6]): 0
MIC distribution (µg/ml) ≤0.015 (Enterococcus faecalis; number of isolates with MIC ≤[…], 14 isolates): 0
MIC distribution (µg/ml) ≥32 (Enterococcus faecalis; number of isolates with MIC ≥[…] µg/ml, 14 isolates): 9
isolates inhibited by a concentration ≤0.5 mg/l (Campylobacter jejuni; C. jejuni): 77%
concentration inhibiting all the other isolates (Campylobacter jejuni; C. jejuni isolates other than the highly resistant strain): ≤ 4 mg/L
MIC (Campylobacter jejuni): 128 mg/L (≈ 174 µM)
MIC (Campylobacter jejuni; read-out: MIC (mg/L) 50%): 0.5 mg/L (≈ 0.681 µM)
MIC (Campylobacter jejuni; read-out: MIC (mg/L) 90%): 1 mg/L (≈ 1.36 µM)

amoxycillin/clavulanate
MIC90 (Streptococcus pneumoniae; Penicillin intermediate (n = 17)): 1 µg/mL
MIC90 (Streptococcus pneumoniae; Penicillin resistant (n = 4)): 1 µg/mL
MIC90 (Streptococcus pneumoniae; Penicillin susceptible (n = 69)): 0.016 µg/mL
